# Results reported in patent US20260200974A1, “PEPTIDE FOR CARTILAGE REGENERATION, AND USES THEREOF” (CAREGEN CO., LTD., priority 2022, published 2026).
# Where a SMILES comes first, the peptide text is derived from it. Where no end group is shown, it is not given here.
# Experiments:
# [1] = system: human adipose-derived mesenchymal stem cells (AD-MSC); test: CCK-8 assay, cytotoxicity; type: cell-based; conditions: 7 days, peptide at different concentrations, FIG. 3, FIG. 4
# Protocol: Specifically, AD-MSC cells were seeded in 96-well plates at a density of 1.5×10^3 cells/well and cultured in Dulbecco's Modified Eagle's Medium (DMEM) supplemented with 10% FBS for 24 hours. Then, the medium was replaced with DMEM medium supplemented with 5% FBS, and Peptide-1 or Peptide-2 was treated at different concentrations, respectively. Subsequently, the medium was replaced every 3 days and Peptide-1 or Peptide-2 was treated at different concentrations, respectively. To confirm CCK-8 activity, after 7 days, CCK-8 (Dojindo, CCK-8 kit) solution was added at 1/10 volume of the culture medium, and incubated for 2 hours. The culture medium was sampled and CCK-8 activity was confirmed at a wavelength of 450 nm using a microplate reader.
# [2] = system: human adipose-derived mesenchymal stem cells (AD-MSC); test: SRB staining, cell morphology changes; type: cell-based; conditions: peptide at different concentrations, FIG. 1, FIG. 2
# Protocol: Additionally, for SRB staining, after suctioning the medium from the plate, 60 μL of 3.7% formalin was added to the 96-well plate to be stained and fixed for 1 minute. After suctioning 3.7% formalin, 70 μL of SRB staining solution (sulforhodamine B sodium salt (sigma, S9012): 0.2 g in 100 mL DDW) was added and stained. The plate was covered with aluminum foil, blocked from light, and incubated overnight at room temperature. After washing with 100 μL of 1% acetic acid using a multi-pipette, it was dried and observed under a microscope. Meanwhile, in this example, the positive control group (CM) used was one containing dexamethasone (100 nM), […], proline (40 μM), TGFβ1 (10 ng/ml), and 1×ITS.
Compound,toxicity toward adipose-derived mesenchymal stem cells (CCK-8 activity) [1],change in cell morphology in SRB staining [2]
"CC(C)C[C@H](NC(=O)[C@@H](N)CCCNC(=N)N)C(=O)N[C@@H](CCCNC(=N)N)C(=O)N[C@@H](CO)C(=O)O [Peptide-2, RLRS] (H-RLRS-OH)",did not exhibit toxicity,did not show any change in cell morphology
"LYRYEEHHE [Peptide-1, LYRYEEHHE]",did not exhibit toxicity,did not show any change in cell morphology
